Source: PMC11094307, “Marine-derived EGFR inhibitors: novel compounds targeting breast cancer growth and drug resistance” (Frontiers in Pharmacology, 2024)
Read-outs that look alike come from different tables or passages of the source.

Key:
[1] = system: MCF-7 cells; test: MTT assay, MCF-7 growth inhibition; assay type: cell-based, human; conditions: Homo sapiens, read-out: EC50, MCF-7 cell viability
Description: Both mediums were enriched with 10% fetal bovine serum and 1% penicillin/streptomycin.
Cells in the exponential growth phase were seeded into 96-well plates and allowed to adhere overnight. […] After 24 h, 20 µL of Methyl-thiazolyldiphenyl-tetrazolium bromide (MTT, 5 mg/mL, Thermo Fisher Scientific) was added to each well and incubated for a minimum of 4 h. Following the incubation, the medium containing the compounds and MTT was removed from each well, and 200 µL of dimethyl sulfoxide (DMSO) was added.
(§1) All experiments were repeated at least three times, and the data are presented as mean ± standard deviation (SD). The statistical analyses were performed using Origin. EC50 or IC50 values were obtained by fitting the data to a four-parameter Hill model of the graph of log dose against percentage cell viability or inhibition from at least three sets of experiments. Difference between two groups were analyzed by Student’s t test (two-sided) and significance was set at p < 0.05. The specific details about statistical methods are introduced in respective figure legends.

[2] = biological target: T1, EGFR intracellular kinase domain (Homo sapiens, UniProt P00533); test: SPR binding (Biacore 8K); parameters: the intracellular tyrosine kinase (TK) domain of EGFR, tagged with GST; purchased Sinobiological, China; conditions: without ATP
From the text: (§2) The extracellular ligand-binding domain of EGFR, tagged with His, and the intracellular tyrosine kinase (TK) domain of EGFR, tagged with GST, were acquired from Sinobiological, China. Kinase assay systems for both wild-type EGFR and its mutants—T790M, L858R, and the dual L858R/T790M—were procured from Promega Corporation, USA. Cell lines including MCF-7, A549, A431, H1299, HL-60, and MCF-10A were obtained from the China Infrastructure Cell Line Resources.
(§3) The binding affinities of compounds towards EGFR extracellular ligand binding domain and EGFR intracellular kinase domain were assayed using the SPR-based Biacore 8K instrument (Cytiva). Considering the purchased EGFR was fused with GST tag, GST alone was also immobilized on the chip to do the binding measurement. All the proteins were respectively immobilized on a CM5 sensor chip by using standard amine-coupling at 25°C with running buffer HEPES-P (20 mM HEPES buffer, […], 0.05% surfactant P20, pH 7.4). A reference channel was only activated and blocked to eliminate compound unspecific binding to the surface of the chip. The immobilization level of EGFR extracellular ligand binding domain, EGFR intracellular kinase domain and GST were all about 10,000 RU. […] Extra wash with 50% DMSO was added to remove the last remaining sample in the pipeline.

[3] = biological target: T2, EGFR extracellular ligand binding domain (Homo sapiens, UniProt P00533); test: SPR binding (Biacore 8K)
T2 construct: His; purchased Sinobiological, China
From the text: as §2, §3

[4] = biological target: T3, WT EGFR (Homo sapiens, UniProt P00533); test: Kinase inhibition assay (ADP-Glo, Promega); assay type: biochemical; conditions: in vitro kinase assay
T3 construct: purchased Promega Corporation, USA
Description: as §2, with “Kinase assay systems for both wild-type EGFR and its mutants—T790M, L858R, and the dual L858R/T790M—were procured from Promega Corporation, USA.” left out
(§4) The experiments were conducted in accordance with the manufacturer’s guidelines (Promega). The procedure began with a kinase reaction, where 5 μL of 1× kinase buffer was utilized, and the mixture was incubated at room temperature for 60 min. This step was followed by the addition of 5 μL of ADP-Glo™ reagent to terminate the kinase reaction and to deplete any remaining ATP, with a subsequent incubation period of 40 min at room temperature. Next, 10 μL of kinase detection reagent was added to convert ADP back into ATP, and luciferase along with luciferin was introduced to facilitate ATP detection. This mixture was then incubated at room temperature for an additional 30 min. Detection was carried out using a BioTek Synergy4 instrument, and data analysis, including curve fitting and presentation, was performed using GraphPad Prism version 5.0.
as §1

[5] = biological target: T4, EGFR T790M (Homo sapiens, UniProt P00533, T790M); test: Kinase inhibition assay (ADP-Glo, Promega); assay type: biochemical
T4 construct: purchased Promega Corporation, USA
Description: as §2, with “Kinase assay systems for both wild-type EGFR and its mutants—T790M, L858R, and the dual L858R/T790M—were procured from Promega Corporation, USA.” left out
as §4, §1

[6] = biological target: T1, EGFR intracellular kinase domain; test: SPR ATP competition experiments (1 mM ATP); conditions: in the presence of ATP, Figure S6
[7] = biological target: T5, EGFR L858R (Homo sapiens, UniProt P00533, L858R); test: Kinase inhibition assay (ADP-Glo, Promega); assay type: biochemical
T5 construct: purchased Promega Corporation, USA
Description: as §2, with “Kinase assay systems for both wild-type EGFR and its mutants—T790M, L858R, and the dual L858R/T790M—were procured from Promega Corporation, USA.” left out
as §4, §1

[8] = biological target: T6, EGFR L858R/T790M (Homo sapiens, UniProt P00533, L858R/T790M); test: Kinase inhibition assay (ADP-Glo, Promega); assay type: biochemical
T6 construct: purchased Promega Corporation, USA
Description: as §2, with “Kinase assay systems for both wild-type EGFR and its mutants—T790M, L858R, and the dual L858R/T790M—were procured from Promega Corporation, USA.” left out
as §4, §1

[9] = biological target: T2, EGFR extracellular ligand binding domain; test: SPR EGF competition experiments; conditions: for kon: read-out: ka
From the text: The protocol fixed the pre-flank contact time, analyte contact time, and post-flank contact time at 60 s, 60 s, and 120 s, respectively.

T1 sequence (P00533 712-979 limits assumed): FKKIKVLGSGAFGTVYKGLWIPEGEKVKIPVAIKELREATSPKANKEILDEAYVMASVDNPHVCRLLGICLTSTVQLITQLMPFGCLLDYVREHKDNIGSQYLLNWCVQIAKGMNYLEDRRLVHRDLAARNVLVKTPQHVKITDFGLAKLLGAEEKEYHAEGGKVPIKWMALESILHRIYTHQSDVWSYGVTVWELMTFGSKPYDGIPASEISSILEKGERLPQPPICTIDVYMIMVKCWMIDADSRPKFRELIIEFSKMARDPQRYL
T3 sequence (P00533 25-1210): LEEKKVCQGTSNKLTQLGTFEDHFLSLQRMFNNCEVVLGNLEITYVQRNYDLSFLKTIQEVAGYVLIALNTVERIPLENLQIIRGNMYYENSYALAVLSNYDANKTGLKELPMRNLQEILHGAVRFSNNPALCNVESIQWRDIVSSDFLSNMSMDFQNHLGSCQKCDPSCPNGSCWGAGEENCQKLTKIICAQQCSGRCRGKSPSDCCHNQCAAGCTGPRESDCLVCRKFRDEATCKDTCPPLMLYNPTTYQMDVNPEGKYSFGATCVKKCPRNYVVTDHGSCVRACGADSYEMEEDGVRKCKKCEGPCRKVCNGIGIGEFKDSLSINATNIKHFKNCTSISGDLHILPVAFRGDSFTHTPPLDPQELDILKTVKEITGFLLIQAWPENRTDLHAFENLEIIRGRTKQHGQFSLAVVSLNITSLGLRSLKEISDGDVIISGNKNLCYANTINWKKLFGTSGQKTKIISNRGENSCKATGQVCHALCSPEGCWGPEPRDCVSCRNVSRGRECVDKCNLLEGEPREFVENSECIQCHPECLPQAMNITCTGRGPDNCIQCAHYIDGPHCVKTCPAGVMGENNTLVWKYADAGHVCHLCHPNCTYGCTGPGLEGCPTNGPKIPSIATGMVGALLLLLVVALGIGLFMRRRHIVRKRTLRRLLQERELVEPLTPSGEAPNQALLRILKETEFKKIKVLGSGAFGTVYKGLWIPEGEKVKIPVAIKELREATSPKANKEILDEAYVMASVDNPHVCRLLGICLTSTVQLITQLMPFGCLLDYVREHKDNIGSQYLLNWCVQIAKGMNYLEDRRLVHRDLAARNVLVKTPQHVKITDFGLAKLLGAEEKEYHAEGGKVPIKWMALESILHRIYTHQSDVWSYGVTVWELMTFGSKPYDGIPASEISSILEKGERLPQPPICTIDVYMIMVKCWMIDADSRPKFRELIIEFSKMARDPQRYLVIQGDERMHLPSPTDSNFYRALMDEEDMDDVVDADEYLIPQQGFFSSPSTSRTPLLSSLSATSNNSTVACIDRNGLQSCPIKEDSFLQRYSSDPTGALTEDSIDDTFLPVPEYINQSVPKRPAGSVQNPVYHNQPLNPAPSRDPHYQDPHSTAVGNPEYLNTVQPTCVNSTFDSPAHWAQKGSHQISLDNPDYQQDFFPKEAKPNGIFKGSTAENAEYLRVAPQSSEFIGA
T4 sequence (P00533 25-1210 T790M): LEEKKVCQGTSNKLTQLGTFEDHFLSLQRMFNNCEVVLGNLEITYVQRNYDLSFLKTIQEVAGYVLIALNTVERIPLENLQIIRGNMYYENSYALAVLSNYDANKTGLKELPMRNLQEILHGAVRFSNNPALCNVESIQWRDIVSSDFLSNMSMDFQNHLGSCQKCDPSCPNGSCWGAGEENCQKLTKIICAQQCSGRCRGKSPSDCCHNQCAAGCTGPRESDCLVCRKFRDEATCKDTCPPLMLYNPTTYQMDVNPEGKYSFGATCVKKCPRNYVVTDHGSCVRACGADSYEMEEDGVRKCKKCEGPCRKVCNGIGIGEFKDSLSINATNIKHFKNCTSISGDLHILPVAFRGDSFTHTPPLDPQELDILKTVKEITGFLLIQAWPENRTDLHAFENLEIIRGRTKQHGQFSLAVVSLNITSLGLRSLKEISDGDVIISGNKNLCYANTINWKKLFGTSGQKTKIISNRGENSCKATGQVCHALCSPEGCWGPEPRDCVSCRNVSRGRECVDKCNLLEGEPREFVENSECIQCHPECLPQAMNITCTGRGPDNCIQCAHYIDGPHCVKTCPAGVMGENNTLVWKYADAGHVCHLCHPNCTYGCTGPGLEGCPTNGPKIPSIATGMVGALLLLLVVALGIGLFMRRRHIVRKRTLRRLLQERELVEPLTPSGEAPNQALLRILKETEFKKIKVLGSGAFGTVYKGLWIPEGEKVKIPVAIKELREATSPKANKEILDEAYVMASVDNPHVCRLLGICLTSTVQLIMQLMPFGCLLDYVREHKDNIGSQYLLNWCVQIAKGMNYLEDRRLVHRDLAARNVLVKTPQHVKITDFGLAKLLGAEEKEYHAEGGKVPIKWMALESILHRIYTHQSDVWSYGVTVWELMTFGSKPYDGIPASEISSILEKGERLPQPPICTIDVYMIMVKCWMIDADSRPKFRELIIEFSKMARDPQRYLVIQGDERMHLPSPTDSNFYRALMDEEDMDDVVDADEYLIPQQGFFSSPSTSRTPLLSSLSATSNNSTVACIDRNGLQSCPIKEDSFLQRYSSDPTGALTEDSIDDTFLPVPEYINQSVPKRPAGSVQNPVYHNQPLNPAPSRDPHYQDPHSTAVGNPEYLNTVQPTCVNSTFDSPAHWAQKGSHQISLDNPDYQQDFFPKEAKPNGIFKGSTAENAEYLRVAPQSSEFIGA
T2 sequence (P00533 25-645 limits assumed): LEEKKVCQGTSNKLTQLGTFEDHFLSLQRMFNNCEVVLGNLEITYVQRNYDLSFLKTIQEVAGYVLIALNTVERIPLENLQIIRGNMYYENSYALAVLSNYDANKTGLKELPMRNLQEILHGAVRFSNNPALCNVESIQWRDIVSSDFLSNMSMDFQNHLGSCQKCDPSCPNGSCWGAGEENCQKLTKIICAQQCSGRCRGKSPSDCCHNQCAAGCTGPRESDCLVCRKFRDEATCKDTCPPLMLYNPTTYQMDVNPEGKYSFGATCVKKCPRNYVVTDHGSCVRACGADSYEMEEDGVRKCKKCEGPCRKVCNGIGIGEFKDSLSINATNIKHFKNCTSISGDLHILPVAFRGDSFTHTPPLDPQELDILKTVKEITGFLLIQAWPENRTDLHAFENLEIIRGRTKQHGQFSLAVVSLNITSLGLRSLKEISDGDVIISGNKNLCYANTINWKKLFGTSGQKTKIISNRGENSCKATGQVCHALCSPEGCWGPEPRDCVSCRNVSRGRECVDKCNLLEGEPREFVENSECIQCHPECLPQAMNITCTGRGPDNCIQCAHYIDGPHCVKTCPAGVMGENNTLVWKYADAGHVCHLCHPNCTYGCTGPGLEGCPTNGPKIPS
T5 sequence (P00533 25-1210 L858R): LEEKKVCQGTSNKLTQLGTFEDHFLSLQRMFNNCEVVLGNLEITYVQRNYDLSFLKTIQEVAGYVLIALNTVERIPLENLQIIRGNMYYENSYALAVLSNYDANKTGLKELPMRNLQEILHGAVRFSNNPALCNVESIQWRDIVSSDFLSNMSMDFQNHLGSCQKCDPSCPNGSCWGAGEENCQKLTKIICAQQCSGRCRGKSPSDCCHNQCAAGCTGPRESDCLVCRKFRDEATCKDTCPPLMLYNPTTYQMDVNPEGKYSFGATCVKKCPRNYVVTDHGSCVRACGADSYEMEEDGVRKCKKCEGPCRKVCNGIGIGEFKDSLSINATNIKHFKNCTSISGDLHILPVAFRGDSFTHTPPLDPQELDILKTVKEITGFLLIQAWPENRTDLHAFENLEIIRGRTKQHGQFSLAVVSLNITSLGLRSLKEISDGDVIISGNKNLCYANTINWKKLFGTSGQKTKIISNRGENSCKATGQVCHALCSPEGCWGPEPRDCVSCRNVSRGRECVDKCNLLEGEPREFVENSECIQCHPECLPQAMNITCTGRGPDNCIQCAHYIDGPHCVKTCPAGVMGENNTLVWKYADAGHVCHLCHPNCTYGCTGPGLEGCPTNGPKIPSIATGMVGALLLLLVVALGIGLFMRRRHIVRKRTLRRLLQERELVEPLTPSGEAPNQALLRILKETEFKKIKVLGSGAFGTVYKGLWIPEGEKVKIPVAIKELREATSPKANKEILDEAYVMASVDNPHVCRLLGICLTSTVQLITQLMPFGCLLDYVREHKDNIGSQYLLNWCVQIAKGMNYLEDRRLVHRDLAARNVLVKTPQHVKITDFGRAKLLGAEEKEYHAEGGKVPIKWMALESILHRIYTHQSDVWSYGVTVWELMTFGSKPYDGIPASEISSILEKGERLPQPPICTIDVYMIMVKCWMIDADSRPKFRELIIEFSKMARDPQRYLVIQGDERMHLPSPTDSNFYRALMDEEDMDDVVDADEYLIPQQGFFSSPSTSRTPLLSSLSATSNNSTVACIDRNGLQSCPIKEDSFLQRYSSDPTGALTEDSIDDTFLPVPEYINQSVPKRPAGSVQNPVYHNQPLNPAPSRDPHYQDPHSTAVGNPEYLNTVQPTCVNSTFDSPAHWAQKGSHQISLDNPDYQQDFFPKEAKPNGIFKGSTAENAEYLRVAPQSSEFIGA

Work on CC[C@@H](C)[C@H]1C=C[C@H]2[C@H](OC(=O)/C=C(\C)CC(=O)OC)[C@H](O)C[C@@H](C)[C@@H]2[C@@]1(C)C(=O)CCO [Tandyukisin B] yielded an EC50 ([1]; MCF7, MTT, 24 h) of 9.2 ± 1.2 µM, a Kd [2] of 7.02 µM and a Kd [3] of 30 µM. For the same compound, the IC50 ([4]; read-out: IC50 against WT EGFR) was 0.0147 ± 0.0011 µM, the IC50 ([5]; in vitro kinase assay, read-out: IC50 against EGFR T790M) was 0.0373 ± 0.0001 µM and the “binding to kinase domain of EGFR” value [6] was “hardly bind”.

CC[C@@H](C)[C@H]1C=C[C@H]2[C@H](OC(=O)C/C(C)=C\C(=O)O)[C@H](O)C[C@@H](C)[C@@H]2[C@@]1(C)C(=O)CCO [Tandyukisin C] gave an EC50 ([1]; MCF7, 24 h) of 8.7 ± 1 µM, a Kd [2] of 6.56 µM and a Kd [3] of 55.1 µM. It also gave an IC50 [7] of 0.003 ± 0.0002 µM, an IC50 ([4]; IC50 against WT EGFR) of 0.0126 ± 0.0001 µM and an IC50 [5] of 0.0297 ± 0.0001 µM. The IC50 [8] was 0.156 ± 0.004 µM and the “binding to kinase domain of EGFR” value [6] was “hardly bind”.

With CC[C@@H](C)[C@H]1C=C[C@H]2[C@H](O)[C@H](OC(=O)/C=C(\C)CC(=O)O)C[C@@H](C)[C@@H]2[C@@]1(C)C(=O)CCO [Trichoharzin] the “folds weaker than binding alone” value ([9]; EGF 2.5 nM) was 3.3 fold, the Kd ([9]; EGF 2.5 nM, Figure 4H, read-out: KD) was 26.2 µM and the kon ([9]; EGF 2.5 nM, Figure 4H) was 1030 M⁻¹ s⁻¹. For the same compound, the “folds weaker than binding alone” value ([9]; EGF 10 nM) was 5.1 fold, the Kd ([9]; EGF 10 nM, Figure 4I, read-out: KD) was 40.6 µM and the kon ([9]; EGF 10 nM, Figure 4I) was 552 M⁻¹ s⁻¹. The “folds weaker than binding alone” value ([9]; EGF 20 nM) was 7.0 fold, the Kd ([9]; EGF 20 nM, Figure 4J, read-out: KD) was 56.2 µM and the kon ([9]; EGF 20 nM, Figure 4J) was 374 M⁻¹ s⁻¹. For the same compound, the “inhibition of EGF-EGFR interaction” value ([9]; SPR, concentration-dependent, 125-500 μM) was “significantly inhibiting”, the Kd ([9]; in the presence of EGF 2.5 nM, read-out: KD for EGFR extracellular ligand binding domain) was 26.2 µM and the Kd ([9]; in the presence of EGF 10 nM, read-out: KD for EGFR extracellular ligand binding domain) was 40.6 µM. It also gave a Kd ([9]; in the presence of EGF 20 nM, read-out: KD for EGFR extracellular ligand binding domain) of 56.2 µM, an EC50 ([1]; MCF7, 24 h) of 4.8 ± 0.4 µM and a Kd [2] of 6.34 µM. The kon ([2]; Figure 4A-B, read-out: ka, EGFR kinase domain) was 8040 M⁻¹ s⁻¹, the Kd [3] was 7.98 µM and the kon ([3]; Figure 4C-D, read-out: ka, EGFR ligand binding domain) was 1810 M⁻¹ s⁻¹. It also gave an IC50 [7] of 0.0028 ± 0.0006 µM, an IC50 ([4]; IC50 against WT EGFR) of 0.0119 ± 0.0001 µM and an IC50 [5] of 0.032 ± 0.0005 µM. It also gave an IC50 [8] of 0.0855 ± 0.0277 µM.
